The text below walks through data of ChEMBL document CHEMBL6182871, “Discovery of 4-((quinolin-8-ylthio)methyl)benzamide derivatives as a new class of SARS-CoV-2 nsp13 inhibitors” (Bioorg Med Chem Lett, 2025).

Molecules are shown by their SMILES.

For the first assay, the target named is T1, Replicase polyprotein 1ab (Severe acute respiratory syndrome coronavirus 2, UniProt P0DTD1). Kind of assay: Binding affinity to SARS-CoV-2 nsp13 assessed as dissociation constant by MST assay.
Regarding `Cn1cc(/C=N/NC(=O)c2ccc(CSc3cccc4cccnc34)cc2)cn1`, the Kd was 46100 nM.

Another assay concerns the target T1, Replicase polyprotein 1ab. As to the kind of experiment: Inhibition of SARS-CoV-2 nsp13 by FRET assay.
The molecule `O=C(N/N=C/c1ccc(Br)o1)c1ccc(CSc2cccc3cccnc23)cc1` returned a half-maximal inhibitory concentration (IC50) greater than 10000 nM.
With `COc1ccc(/C=N/NC(=O)c2ccc(CSc3cccc4cccnc34)cc2)cc1OC`, the IC50 amounted to 4970 nM.
Take `O=C(N/N=C/c1cc([N+](=O)[O-])ccc1Cl)c1ccc(COc2cccc3ccccc23)cc1`: the IC50 is greater than 10000 nM.
Same read-out and setting: with `O=C(N/N=C/c1cc2ccncc2[nH]1)c1ccc(CSc2cccc3cccnc23)cc1` the figure was greater than 10000 nM; with `O=C(N/N=C/c1cc([N+](=O)[O-])ccc1Cl)c1ccc(CNc2cccc3ccccc23)cc1`, greater than 10000 nM.
Molecule `O=C(N/N=C/c1ncccn1)c1ccc(CSc2cccc3cccnc23)cc1` displayed a concentration for half-maximal inhibition (IC50) greater than 10000 nM.
Regarding `Cn1cc(/C=N/NC(=O)c2ccc(CSc3cccc4cccnc34)cc2)cn1`, the half-maximal inhibitory concentration (IC50) turned out to be 26800 nM.
Still for that read-out and setting: then `O=C(N/N=C/c1c(O)ccc2ccccc12)c1ccc(CSc2cccc3cccnc23)cc1`, with 3920 nM; and `O=C(N/N=C/c1cc(O)c(Br)c(O)c1)c1ccc(CSc2cccc3cccnc23)cc1`, with 2060 nM.
`O=C(N/N=C/c1c(Cl)ccnc1Cl)c1ccc(CSc2cccc3cccnc23)cc1` showed a concentration for half-maximal inhibition (IC50) of 480 nM. Compared with the last molecule, the IC50 is about 4.3-fold lower.
As to `O=C(N/N=C/c1ccc(F)nc1)c1ccc(CSc2cccc3cccnc23)cc1`, the half-inhibitory concentration (IC50) came to 660 nM.
As to `O=C(N/N=C/c1cccc2ccncc12)c1ccc(CSc2cccc3cccnc23)cc1`, half-maximal inhibition (IC50) required 4330 nM.
On to `COc1ccc(/C=N/NC(=O)c2ccc(CSc3cccc4cccnc34)cc2)cc1`, for which the 50% inhibitory concentration (IC50) came to 960 nM.
Molecule `O=C(N/N=C/c1c(Cl)nc(Cl)nc1Cl)c1ccc(CSc2cccc3cccnc23)cc1` displayed a half-inhibitory concentration (IC50) of 2940 nM.
Same read-out and setting: with `O=C(N/N=C/c1ccc(F)cc1)c1ccc(CSc2cccc3cccnc23)cc1` the figure was 2570 nM; with `O=C(N/N=C/c1cc(F)c(F)cc1O)c1ccc(CSc2cccc3cccnc23)cc1`, 2340 nM; with `C/C(=N\NC(=O)c1ccc(CSc2cccc3cccnc23)cc1)c1ccc(F)nc1`, greater than 10000 nM.
`O=C(N/N=C/c1cc([N+](=O)[O-])ccc1Cl)c1ccc(CSc2cccc3ccccc23)cc1` came in with an IC50 greater than 10000 nM.
Molecule `CSc1nnc(SCc2ccc(C(=O)N/N=C/c3cc([N+](=O)[O-])ccc3Cl)cc2)s1` had an IC50 greater than 10000 nM.
The same measure, in the same setting: then `COc1cc(F)ccc1/C=N/NC(=O)c1ccc(CSc2cccc3cccnc23)cc1`, with 2850 nM; and `O=C(N/N=C/c1cc([N+](=O)[O-])ccc1Cl)c1ccc(CSc2cccc3cccnc23)cc1`, with 280 nM.
On the same count and under the same terms, then `O=C(N/N=C/c1cccc(F)c1O)c1ccc(CSc2cccc3cccnc23)cc1`, with 2980 nM.
Consider `COc1cc(/C=N/NC(=O)c2ccc(CSc3cccc4cccnc34)cc2)ccc1O`, for which 9190 nM corresponded to half-maximal inhibition (IC50).
Regarding `O=C(N/N=C/c1ccc(F)cc1O)c1ccc(CSc2cccc3cccnc23)cc1`, the half-maximal inhibitory concentration (IC50) turned out to be 2700 nM.
`O=C(N/N=C/c1cc2c(cc1[N+](=O)[O-])OCO2)c1ccc(CSc2cccc3cccnc23)cc1` displayed an IC50 of 430 nM.
For `CC(C)NC(=O)c1ccc(/C=N/NC(=O)c2ccc(CSc3cccc4cccnc34)cc2)cc1`, the IC50 came to 940 nM. Against the preceding molecule, the IC50 is about 2.2-fold higher.
For the molecule `O=C(N/N=C/c1cc([N+](=O)[O-])ccc1Cl)c1ccc(CSc2ccnc3ccccc23)cc1`, the IC50 turned out to be 760 nM.
Consider `COc1ccc(/C=N/NC(=O)c2ccc(CSc3cccc4cccnc34)cc2)c(O)c1`, for which half-maximal inhibition (IC50) required 5440 nM. Against the preceding molecule, the IC50 is about 7.2-fold higher.
As to `O=C(N/N=C/c1cc([N+](=O)[O-])ccc1Cl)c1ccc(CSc2ccccc2Br)cc1`, the half-inhibitory concentration (IC50) is greater than 10000 nM.
On to `O=C(N/N=C/c1ccc(Cl)nc1)c1ccc(CSc2cccc3cccnc23)cc1`, for which the half-maximal inhibitory concentration (IC50) is 5100 nM.

A word on the Kd: it is the concentration at which binding is half-saturated. Usually IC50 stands for the concentration that inhibits the measured activity by half. A higher IC50 goes with weaker potency in that assay.
